By IC50 is commonly meant the concentration that gives 50% inhibition. Usually Kd stands for a measure of binding affinity in units of concentration. In general, inhibition refers to the percentage by which the read-out fell short of the control.

Results on two compounds are retold here after paper PMC12300041, “Tricyclic Isatin Derivatives as Anti-Inflammatory Compounds with High Kinase Binding Affinity” (Molecules, 2025).

Molecules are shown by their SMILES.

In test [1] the test system is proinflammatory cytokine production. Kind of test: Multiplex human cytokine ELISA, LPS-stimulated MonoMac-6 cells. Type of test: cell-based. Conditions: 10 μM compound, 24 h, versus DMSO-treated control. The text has this: A multiplex human cytokine ELISA kit from Anogen (Mississauga, ON, Canada) was used to evaluate various cytokines (IL-1α, IL-1β, IL-6, GM-CSF, MCP-1, IFN-γ, and TNF) in the supernatants of MonoMac-6 cells.
(In an ELISA, binding on a coated surface is turned into a signal by an enzyme label.)

The next test relates to IL-6 production. Kind of test: LPS-induced IL-6 production in MonoMac-6 cells (ELISA). Type of test: cell-based. Conditions: Homo sapiens, MONO-MAC-6, 24 h, N.A.: not active at the highest tested concentration (50 μM). The method, then: Human MonoMac-6 monocyte/macrophage cells (Deutsche Sammlung von Mikroorganismen und Zellkulturen GmbH, Braunschweig, Germany) were cultured in RPMI 1640 medium containing 10% (v/v) FBS, 10 μg/mL bovine insulin, 100 μg/mL streptomycin, and 100 U/mL penicillin.
An IL-6 ELISA kit (BD Biosciences, San Jose, CA, USA) was used to assess the effect of selected compounds on IL-6 production. MonoMac-6 cells were plated in 96-well plates at a density of 2 × 10^5 cells/well in culture medium supplemented with 3% (v/v) endotoxin-free FBS. Cells were pretreated with test compound or DMSO for 30 min, followed by addition of 200 ng/mL LPS for 24 h. For selected compounds, the IC50 for cytokine production was calculated by plotting percentage inhibition against the logarithm of inhibitor concentration (at least five points).

The next test deals with T1, IRAK1 (Homo sapiens, UniProt P51617).
T1 construct: purchased Eurofins Pharma Discovery (KINOMEscan)
Kind of test: KINOMEscan. Type of test: binding. The method, then: (§1) Kinase profiling was performed by KINOMEscan (Eurofins Pharma Discovery, San Diego, CA, USA), using a panel of 423 protein kinases, as described previously. Compounds were submitted for dissociation constant (Kd) determination toward several target kinases using KINOMEscan. […] Binding reactions were performed at room temperature for 1 h, and the fraction of kinase not bound to the test compound was determined by capture with an immobilized affinity ligand and quantified by quantitative polymerase chain reaction. The primary screening at fixed concentrations of the compound was performed in duplicate. For dissociation constant Kd determination, a 12-point half-log dilution series (a maximum concentration of 33 μM) was used.

For the next test, the target named is T2, NEK10 (Homo sapiens, UniProt Q6ZWH5).
T2 construct: purchased Eurofins Pharma Discovery (KINOMEscan)
T2 sequence (Q6ZWH5 1-1172): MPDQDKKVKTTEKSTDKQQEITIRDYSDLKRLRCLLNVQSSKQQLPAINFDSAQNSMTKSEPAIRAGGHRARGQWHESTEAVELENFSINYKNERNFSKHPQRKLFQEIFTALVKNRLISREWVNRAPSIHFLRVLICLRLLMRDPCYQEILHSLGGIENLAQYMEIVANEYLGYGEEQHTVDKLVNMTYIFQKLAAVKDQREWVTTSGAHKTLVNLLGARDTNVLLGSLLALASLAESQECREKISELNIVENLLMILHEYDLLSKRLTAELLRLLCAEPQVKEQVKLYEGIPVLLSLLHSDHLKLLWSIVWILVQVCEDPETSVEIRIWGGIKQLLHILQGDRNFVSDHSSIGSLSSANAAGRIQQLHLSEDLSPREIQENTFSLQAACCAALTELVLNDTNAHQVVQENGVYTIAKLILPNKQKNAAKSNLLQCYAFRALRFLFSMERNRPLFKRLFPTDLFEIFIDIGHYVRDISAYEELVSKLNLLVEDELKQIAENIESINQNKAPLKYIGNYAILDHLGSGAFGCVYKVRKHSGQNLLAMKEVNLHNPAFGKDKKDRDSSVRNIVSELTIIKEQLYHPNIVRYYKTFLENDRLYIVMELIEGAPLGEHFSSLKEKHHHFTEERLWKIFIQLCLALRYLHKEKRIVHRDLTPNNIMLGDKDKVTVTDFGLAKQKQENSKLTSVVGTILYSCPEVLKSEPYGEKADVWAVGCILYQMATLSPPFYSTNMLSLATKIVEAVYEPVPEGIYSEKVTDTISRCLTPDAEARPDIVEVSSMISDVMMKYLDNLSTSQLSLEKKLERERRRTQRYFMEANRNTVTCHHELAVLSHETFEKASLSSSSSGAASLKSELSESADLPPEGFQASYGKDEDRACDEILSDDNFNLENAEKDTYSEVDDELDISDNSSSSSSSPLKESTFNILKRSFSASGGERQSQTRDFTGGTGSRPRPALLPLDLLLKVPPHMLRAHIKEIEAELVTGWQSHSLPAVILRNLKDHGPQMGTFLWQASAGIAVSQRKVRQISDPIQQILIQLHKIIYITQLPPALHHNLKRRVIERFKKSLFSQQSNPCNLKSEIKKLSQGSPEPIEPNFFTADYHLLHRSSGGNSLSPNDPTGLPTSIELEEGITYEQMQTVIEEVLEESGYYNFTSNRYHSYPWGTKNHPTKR
The experiment in a line: KINOMEscan. In kind it is binding. Conditions: for Kd: NEK10, N.B.: no binding at concentrations up to 30 µM. On the procedure:
as §1

For a further test, the target named is T3, HIPK3 (Homo sapiens, UniProt Q9H422).
T3 construct: purchased Eurofins Pharma Discovery (KINOMEscan)
Kind of test: KINOMEscan. Conditions: for Kd: HIPK3, N.B.: no binding at concentrations up to 30 µM. Type of test: binding. The method, then: as §1

A further test has as its target T4, DAPK3 (Homo sapiens, UniProt O43293).
T4 construct: purchased Eurofins Pharma Discovery (KINOMEscan)
The experiment in a line: KINOMEscan. Type of test: binding. Conditions: for Kd: DAPK3, N.B.: no binding at concentrations up to 30 µM. On the procedure: as §1

The target of the next test is T5, DYRK1B (Homo sapiens, UniProt Q9Y463).
T5 construct: purchased Eurofins Pharma Discovery (KINOMEscan)
The experiment in a line: KINOMEscan. Type of test: binding. The method, then:
as §1

Another test concerns the target T6, PIM1 (Homo sapiens, UniProt P11309).
T6 construct: purchased Eurofins Pharma Discovery (KINOMEscan)
Kind of test: KINOMEscan. In kind it is binding. Conditions: for Kd: PIM1, N.B.: no binding at concentrations up to 30 µM. On the procedure: as §1

A further test deals with T7, DAPK1 (Homo sapiens, UniProt P53355).
T7 construct: purchased Eurofins Pharma Discovery (KINOMEscan)
Kind of test: KINOMEscan. Type of test: binding. Conditions: for Kd: DAPK1, N.B.: no binding at concentrations up to 30 µM. On the procedure:
as §1

The target of another test is T8, DAPK2 (Homo sapiens, UniProt Q9UIK4).
T8 construct: purchased Eurofins Pharma Discovery (KINOMEscan)
The experiment in a line: KINOMEscan. In kind it is binding. Conditions: for Kd: DAPK2, N.B.: no binding at concentrations up to 30 µM. On the procedure: as §1

In the next test the target is T9, HIPK2 (Homo sapiens, UniProt Q9H2X6).
T9 construct: purchased Eurofins Pharma Discovery (KINOMEscan)
Kind of test: KINOMEscan. Type of test: binding. Conditions: for Kd: HIPK2, N.B.: no binding at concentrations up to 30 µM. On the procedure: as §1

For a further test, the target named is T10, DYRK1A (Homo sapiens, UniProt Q13627).
T10 construct: purchased Eurofins Pharma Discovery (KINOMEscan)
Kind of test: KINOMEscan. Conditions: for Kd: DYRK1A, N.B.: no binding at concentrations up to 30 µM. Type of test: binding. On the procedure:
as §1

The mark [2] stands for this setting: IRAK1, N.B.: no binding at concentrations up to 30 µM.
Where [3] appears, read: DYRK1B, N.B.: no binding at concentrations up to 30 µM.

T3 sequence (Q9H422 whole entry): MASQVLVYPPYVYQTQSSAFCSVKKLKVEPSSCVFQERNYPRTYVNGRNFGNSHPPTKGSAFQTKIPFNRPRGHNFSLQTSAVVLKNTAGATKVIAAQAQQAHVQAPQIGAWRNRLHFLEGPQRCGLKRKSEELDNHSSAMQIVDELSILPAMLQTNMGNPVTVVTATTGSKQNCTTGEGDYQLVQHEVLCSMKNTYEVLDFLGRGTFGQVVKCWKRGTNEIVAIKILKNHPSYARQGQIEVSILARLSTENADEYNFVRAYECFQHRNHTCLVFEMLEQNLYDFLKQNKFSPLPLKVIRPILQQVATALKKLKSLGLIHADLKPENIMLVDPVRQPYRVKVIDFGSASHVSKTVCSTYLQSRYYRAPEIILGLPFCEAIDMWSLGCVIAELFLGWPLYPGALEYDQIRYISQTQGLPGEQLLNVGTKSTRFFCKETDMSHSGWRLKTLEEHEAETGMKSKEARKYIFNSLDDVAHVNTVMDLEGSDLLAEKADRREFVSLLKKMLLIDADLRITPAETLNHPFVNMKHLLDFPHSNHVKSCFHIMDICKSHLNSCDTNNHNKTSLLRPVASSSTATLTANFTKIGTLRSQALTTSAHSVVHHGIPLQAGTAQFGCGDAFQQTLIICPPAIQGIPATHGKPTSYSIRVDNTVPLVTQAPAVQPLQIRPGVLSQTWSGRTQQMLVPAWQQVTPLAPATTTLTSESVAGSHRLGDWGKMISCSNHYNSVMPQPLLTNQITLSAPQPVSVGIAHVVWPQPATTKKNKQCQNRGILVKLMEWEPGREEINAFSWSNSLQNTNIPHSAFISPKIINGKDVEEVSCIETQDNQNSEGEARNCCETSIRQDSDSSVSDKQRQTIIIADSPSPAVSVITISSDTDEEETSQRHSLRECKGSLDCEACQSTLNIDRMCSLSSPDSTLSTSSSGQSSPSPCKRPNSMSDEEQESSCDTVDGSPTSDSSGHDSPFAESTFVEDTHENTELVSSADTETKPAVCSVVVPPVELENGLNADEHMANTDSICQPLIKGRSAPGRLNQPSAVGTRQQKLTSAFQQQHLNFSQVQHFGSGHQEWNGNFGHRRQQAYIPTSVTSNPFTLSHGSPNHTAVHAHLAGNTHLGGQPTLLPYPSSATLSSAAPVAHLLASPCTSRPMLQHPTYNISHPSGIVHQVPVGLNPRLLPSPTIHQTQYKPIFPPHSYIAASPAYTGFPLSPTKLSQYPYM
T7 sequence (P53355 whole entry): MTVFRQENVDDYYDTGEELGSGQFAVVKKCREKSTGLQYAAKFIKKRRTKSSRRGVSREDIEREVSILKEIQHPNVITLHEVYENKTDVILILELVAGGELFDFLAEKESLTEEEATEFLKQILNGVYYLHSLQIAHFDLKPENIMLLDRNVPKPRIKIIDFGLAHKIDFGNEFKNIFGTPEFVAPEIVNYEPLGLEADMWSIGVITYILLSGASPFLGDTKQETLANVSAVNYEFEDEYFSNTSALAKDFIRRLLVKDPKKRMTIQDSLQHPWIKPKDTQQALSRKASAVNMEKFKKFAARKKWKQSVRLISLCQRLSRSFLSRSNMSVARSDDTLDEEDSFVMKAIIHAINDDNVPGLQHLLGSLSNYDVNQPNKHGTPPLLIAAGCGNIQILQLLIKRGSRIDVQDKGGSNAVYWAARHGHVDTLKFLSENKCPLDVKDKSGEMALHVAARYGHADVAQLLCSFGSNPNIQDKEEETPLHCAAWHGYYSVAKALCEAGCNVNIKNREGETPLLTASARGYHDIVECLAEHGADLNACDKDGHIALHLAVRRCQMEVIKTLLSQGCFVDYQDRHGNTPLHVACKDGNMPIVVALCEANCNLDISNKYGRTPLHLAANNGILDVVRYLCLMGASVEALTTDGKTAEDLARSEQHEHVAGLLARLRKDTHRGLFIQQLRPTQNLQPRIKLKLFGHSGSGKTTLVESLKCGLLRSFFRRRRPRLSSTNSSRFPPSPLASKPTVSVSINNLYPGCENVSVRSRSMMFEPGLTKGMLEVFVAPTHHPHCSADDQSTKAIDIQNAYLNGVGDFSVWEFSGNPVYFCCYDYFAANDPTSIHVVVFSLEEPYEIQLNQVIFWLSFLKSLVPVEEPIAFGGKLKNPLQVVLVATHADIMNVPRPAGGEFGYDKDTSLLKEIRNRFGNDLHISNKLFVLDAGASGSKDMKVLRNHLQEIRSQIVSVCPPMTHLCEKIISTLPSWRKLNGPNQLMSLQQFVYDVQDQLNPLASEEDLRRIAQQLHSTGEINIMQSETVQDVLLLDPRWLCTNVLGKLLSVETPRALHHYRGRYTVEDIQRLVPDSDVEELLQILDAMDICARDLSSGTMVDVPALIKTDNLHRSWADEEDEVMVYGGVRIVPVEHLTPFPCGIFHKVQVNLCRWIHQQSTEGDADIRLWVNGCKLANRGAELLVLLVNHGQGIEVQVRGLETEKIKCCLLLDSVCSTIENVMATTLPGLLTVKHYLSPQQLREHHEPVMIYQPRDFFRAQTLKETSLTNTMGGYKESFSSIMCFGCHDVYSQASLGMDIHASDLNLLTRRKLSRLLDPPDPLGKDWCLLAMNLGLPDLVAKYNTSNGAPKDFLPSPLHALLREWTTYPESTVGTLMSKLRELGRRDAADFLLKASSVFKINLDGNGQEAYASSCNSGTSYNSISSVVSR
T8 sequence (Q9UIK4 whole entry): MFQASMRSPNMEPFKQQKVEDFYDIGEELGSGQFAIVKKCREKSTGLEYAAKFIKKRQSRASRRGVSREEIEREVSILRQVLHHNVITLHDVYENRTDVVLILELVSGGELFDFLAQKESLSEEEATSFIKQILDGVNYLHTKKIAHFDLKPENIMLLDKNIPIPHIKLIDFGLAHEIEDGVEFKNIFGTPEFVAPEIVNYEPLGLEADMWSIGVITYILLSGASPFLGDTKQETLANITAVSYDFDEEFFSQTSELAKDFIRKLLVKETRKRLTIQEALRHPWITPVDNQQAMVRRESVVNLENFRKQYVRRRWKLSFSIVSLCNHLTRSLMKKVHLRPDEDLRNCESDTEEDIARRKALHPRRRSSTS
T5 sequence (Q9Y463 whole entry): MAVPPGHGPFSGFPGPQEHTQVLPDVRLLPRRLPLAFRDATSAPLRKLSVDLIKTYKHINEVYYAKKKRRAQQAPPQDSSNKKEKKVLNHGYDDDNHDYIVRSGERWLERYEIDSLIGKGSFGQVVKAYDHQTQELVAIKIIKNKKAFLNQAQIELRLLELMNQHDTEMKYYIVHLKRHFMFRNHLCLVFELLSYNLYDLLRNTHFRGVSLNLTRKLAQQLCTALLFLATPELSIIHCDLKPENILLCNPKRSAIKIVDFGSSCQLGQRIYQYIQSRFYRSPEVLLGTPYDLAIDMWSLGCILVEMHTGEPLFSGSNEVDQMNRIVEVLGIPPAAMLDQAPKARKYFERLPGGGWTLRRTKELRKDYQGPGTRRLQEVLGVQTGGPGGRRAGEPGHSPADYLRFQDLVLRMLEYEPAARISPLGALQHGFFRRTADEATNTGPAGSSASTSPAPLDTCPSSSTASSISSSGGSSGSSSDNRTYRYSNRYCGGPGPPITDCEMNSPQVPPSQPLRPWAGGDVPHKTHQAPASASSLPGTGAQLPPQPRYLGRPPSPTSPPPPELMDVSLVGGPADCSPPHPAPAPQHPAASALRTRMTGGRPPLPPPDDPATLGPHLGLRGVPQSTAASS
T6 sequence (P11309 whole entry): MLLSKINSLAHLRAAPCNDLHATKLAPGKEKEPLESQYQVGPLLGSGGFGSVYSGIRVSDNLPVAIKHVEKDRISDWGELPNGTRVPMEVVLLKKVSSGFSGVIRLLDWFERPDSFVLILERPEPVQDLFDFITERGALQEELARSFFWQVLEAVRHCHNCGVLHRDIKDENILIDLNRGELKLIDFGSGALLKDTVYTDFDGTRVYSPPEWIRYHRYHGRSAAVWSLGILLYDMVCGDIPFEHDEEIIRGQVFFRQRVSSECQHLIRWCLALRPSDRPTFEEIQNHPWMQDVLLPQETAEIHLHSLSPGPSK
T1 sequence (P51617 whole entry): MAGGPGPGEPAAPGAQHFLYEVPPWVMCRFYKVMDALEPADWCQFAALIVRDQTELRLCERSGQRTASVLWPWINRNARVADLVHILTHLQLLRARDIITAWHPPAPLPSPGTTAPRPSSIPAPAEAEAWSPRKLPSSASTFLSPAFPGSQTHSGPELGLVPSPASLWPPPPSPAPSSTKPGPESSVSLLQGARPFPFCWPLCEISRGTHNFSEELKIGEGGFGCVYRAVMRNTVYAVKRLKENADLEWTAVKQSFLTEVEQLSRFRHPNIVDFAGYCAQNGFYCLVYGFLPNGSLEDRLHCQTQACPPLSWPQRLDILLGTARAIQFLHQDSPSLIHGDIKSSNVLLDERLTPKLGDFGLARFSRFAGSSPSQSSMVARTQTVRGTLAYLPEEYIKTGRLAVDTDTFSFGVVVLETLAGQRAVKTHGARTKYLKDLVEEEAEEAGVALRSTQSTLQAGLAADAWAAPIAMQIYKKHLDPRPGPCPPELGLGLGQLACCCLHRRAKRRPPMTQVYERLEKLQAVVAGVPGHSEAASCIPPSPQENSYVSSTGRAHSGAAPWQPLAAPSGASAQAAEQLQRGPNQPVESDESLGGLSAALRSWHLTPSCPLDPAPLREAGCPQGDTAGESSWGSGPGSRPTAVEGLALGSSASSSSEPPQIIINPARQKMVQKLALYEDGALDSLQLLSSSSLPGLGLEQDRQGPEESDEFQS

On to `O=C1Nc2c(ccc3c2CCCC3)C1=NO` [Compound 5a, 3-(Hydroxyimino)-1,3,6,7,8,9-hexahydro-2H-benzo[g]indol-2-one], for which the “inhibition of secretion of IL-1α, IL-1β, IL-6, TNF and MCP-1” value in [1] is “less effective”. The IC50 in the test with IL-6 production was determined as 48300 ± 4400 nM. Moreover, the “Kd (µM)” value at IRAK1 (setting [2]) and at DYRK1B (setting [3]) was “N.B” each time. The equilibrium dissociation constant (Kd) was found to be 3200 ± 1000 nM at NEK10; 1300 ± 300 nM at HIPK3; 20500 ± 3500 nM on DAPK3; 1800 ± 100 nM at PIM1; 13500 ± 700 nM at DAPK1; 7700 ± 1100 nM at DAPK2. For the same compound, the figures for the Kd at HIPK2 and at DYRK1A were 730 ± 640 nM and 850 ± 120 nM, respectively.

In the case of `O=C1Nc2c(cc([N+](=O)[O-])c3c2CCCC3)C1=NO` [Compound 5d, 3-(Hydroxyimino)-5-nitro-1,3,6,7,8,9-hexahydro-2H-benzo[g]indol-2-one], the “inhibition of secretion of IL-1α, IL-1β, IL-6, TNF and MCP-1” value in [1] is reported as “inhibited”. The IC50 in the test on IL-6 production stood at 12600 ± 3200 nM. Moreover, the inhibition at 10 µM on IRAK1 (10 μM) is 99.2%; on NEK10 (10 μM), 100%; on HIPK3 (10 μM) it was 100%; at DAPK3 (10 μM) it was 98.5%; on DYRK1B (10 μM), 96.4%; at PIM1 (10 μM) it was 98.2%. Also, the inhibition at 10 µM on DAPK1 (10 μM) is 96.3%; on DAPK2 (10 μM), 98.9%; on HIPK2 (10 μM), 99.7%; on DYRK1A (10 μM), 98.8%. Further, the dissociation constant (Kd) at IRAK1 (setting [2]) stood at 670 ± 113 nM; on NEK10 it was 660 ± 71 nM; at HIPK3, 135 ± 70 nM; on DAPK3, 590 ± 28 nM; on DYRK1B (setting [3]) it was 470 ± 20 nM; on PIM1 it was 122 ± 54 nM. The Kd was determined as 290 ± 20 nM on DAPK1, 200 ± 42 nM on DAPK2, 295 ± 92 nM at HIPK2 and 435 ± 78 nM at DYRK1A.
